We go through four compounds from article PMC2981508 (Science (New York, N.Y.), 2009).

In data set [1] the test system is AR recruitment to PSA enhancer and TMPRSS2 enhancer in LNCaP/AR cells. In words: Chromatin immunoprecipitation of AR in LNCaP/AR cells. The data set is classed as cell-based, human.
The test system of another data set is LNCaP/AR tumors. Nature of the data set: LNCaP/AR xenograft model of CRPC in castrate male mice.
Data set [2] has as its system VCaP cells. In words: VCaP apoptosis. The data set is classed as cell-based, human. To be noted: 10 μM, 1 or 3 days, PARP cleavage.
Data set [3] concerns AR recruitment to PSA enhancer and TMPRSS2 enhancer in parental LNCaP cells. Nature of the data set: Chromatin immunoprecipitation of AR in parental LNCaP cells. It is filed as cell-based, human.
For data set [4], the system named is AR target genes PSA and TMPRSS2 in LNCaP/AR cells. Nature of the data set: qRT-PCR of AR-dependent genes in LNCaP/AR cells. It is filed as cell-based, human. To be noted: androgen-depleted media 5% CSS, 8 hours, 1 and 10 μM. For orientation: In qPCR the cycle at which signal appears reflects the starting amount.
The subject of data set [5] is PSA and TMPRSS2 in parental LNCaP cells. Nature of the data set: Antagonism of R1881 induction of PSA and TMPRSS2 in parental LNCaP cells. The data set is classed as cell-based, human.
Data set [6] relates to VCaP cells. In words: VCaP cell proliferation. The data set is classed as cell-based, human. To be noted: 1 and 10 μM, media containing FBS.
A further data set deals with serum PSA. Nature of the data set: Phase I/II clinical trial in men with CRPC. It is filed as in vivo, human.
The test system of data set [7] is DU145 human prostate cancer cells. In words: Growth of AR-negative DU145 cells in vitro. It is filed as cell-based.
The subject of the next data set is VP16-AR fusion protein. It is filed as cell-based. As to conditions: Cos-7 cells, 24 hours.
The subject of the next data set is AR. As to conditions: cited from earlier work.
The subject of data set [8] is DU145 prostate cancer xenografts. Nature of the data set: AR-negative DU145 prostate cancer xenografts. Also on record: species or system mice. As to conditions: mouse, in vivo.
The nature of data set [9]: Plasma levels in LNCaP/AR tumor-bearing mice. As to conditions: 10 mg/kg oral daily, 20 hours after the final dose on day 28.

Molecules are shown by their SMILES.

In the case of `CNC(=O)c1ccc(N2C(=S)N(c3ccc(C#N)c(C(F)(F)F)c3)C(=O)C2(C)C)cc1F` [MDV3100], the “AR recruitment to PSA enhancer and TMPRSS2 enhancer” value (from here on “AR recruitment”) in data set [1] is “Neither RD162 nor MDV3100 recruited AR”. In addition, the Tumor responses result in the data set with LNCaP/AR tumors (MDV3100 treatment (fig. S5)) is recorded as “Tumor responses were also observed”. In the data set on VCaP cells [2], the “Apoptosis in VCaP cells” value is “induced apoptosis”. The “AR recruitment” value in data set [3] is recorded as “Neither RD162 nor MDV3100 recruited AR”. Moreover, the “Expression of AR target genes PSA and TMPRSS2 (agonist activity)” value in data set [4] was “do not have agonist activity”. Also, the “Antagonism of induction of PSA and TMPRSS2 by R1881” value in [5] was “antagonized induction”. Also, the “Growth of VCaP cells” value with VCaP cells [6] is listed as “suppressed growth”. In the data set with serum PSA (30 mg or 60 mg daily oral), the “Patients with sustained decline in serum PSA levels for at least 12 weeks (of 30)” value is “Twenty-two”, the Tolerability result was “well tolerated” and the “patients remaining on study longer than 25 weeks (of 30)” value stood at 11 patients. In the data set on serum PSA (first 30 patients), the “Percent of patients with sustained declines (by >50 percent) in serum PSA” value turned out to be 43%. The “Growth suppression in AR-negative DU145 cells” value in data set [7] is on record as “not observed”.
Take `C[C@]1(O)CC[C@H]2[C@@H]3CCC4=CC(=O)CCC4=C3C=C[C@@]21C` [R1881, reference compound]: the figures for the “AR recruitment” value in data set [1] and in data set [3] were “promoted AR recruitment” and “only R1881 promoted recruitment”, respectively. Moreover, in the data set on VP16-AR fusion protein, the “Activation of VP16-AR” value was “activated VP16-AR”.
Regarding `CC1(C)C(=O)N(c2ccc(C#N)c(C(F)(F)F)c2)C(=S)N1CCCCO` [RU59063], the “affinity for AR, fold reduced compared to testosterone” value in the data set with AR is given as 3 fold.
As for `CC(O)(CS(=O)(=O)c1ccc(F)cc1)C(=O)Nc1ccc(C#N)c(C(F)(F)F)c1` (stereo not drawn) [bicalutamide, reference compound], the “AR recruitment” value in [1] is “promoted AR recruitment”. The “growth of AR-negative DU145 xenografts” value in data set [8] was “neither bicalutamide nor RD162 impaired the growth”. In the data set with LNCaP/AR tumors (10 mg/kg oral daily, 28 days), the “Tumors progressed on treatment (of 12)” value is listed as “seven tumors”, the “Tumors regressed (12 tumors per group)” value is given as “one tumor regressed by 50%”, the “Tumors with stable disease (of 12)” value is reported as “four tumors” and the “increase in tumor volume of progressing tumors” value is recorded as “up to 5 fold”. In addition, the “Median time to tumor progression” value in the data set with LNCaP/AR tumors (continual 10 mg/kg oral daily treatment) worked out at 35 days. Besides, the “AR recruitment” value in data set [3] was “only R1881 promoted recruitment”. Also, the “Expression of AR target genes PSA and TMPRSS2 (agonist activity)” value in data set [4] is “induced”. Also, in data set [9], the “Plasma levels (mean)” value amounted to 40 µM and the “Plasma levels in all mice” value is listed as “exceeded 25 μM”.
